What all share (format): physicochemical
The nature of data set [1]: Equilibrium solubility in water. The conditions noted are these: H2O, room temperature, 24 hours; listed as p-Toluenesulfonate salt crystal form B-III. How it is done: The sample was centrifuged and filtered, and the filtrate was tested by HPLC.
Data set [2] is described as follows: Hygroscopicity by dynamic moisture sorption (DVS). The conditions noted are these: DVS, listed as p-Toluenesulfonate salt crystal form B-III. Here is the method:
Dynamic moisture sorption (DVS): The curves were collected on a DVS Intrinsic of SMS (Surface Measurement Systems). At 25° C., the humidity range was 0% RH-95% RH, the step was 10% (the last step was 5%), and the dm/dt was 0.002%/min.
The hygroscopicity of the free compound of formula (I), mucate salt crystal form A-I, p-toluenesulfonate salt crystal forms A-II and B-III, di-p-toluenesulfonate salt crystal form A-IV and phosphate salt crystal form A-V was evaluated by dynamic moisture sorption instrument (DVS). Starting from 0% relative humidity (0% RH), the test collected the mass change percentage of the samples under constant temperature of 25° C. with humidity changes (0% RH-95% RH-0% RH).

Data set [3] can be described thus: Solid-state stability evaluation (XRPD, HPLC). The conditions noted are these: for Purity / Purity/initial purity: listed as p-Toluenesulfonate salt crystal form B-III. Here is the method:
The following 6 test samples were placed under 25° C./60% RH and 40° C./75% RH conditions for 1 week, and then the physical and chemical stability of the samples was tested by XRPD and HPLC.
At the same time, after the p-toluenesulfonate salt crystal form A-II and crystal form B-III solids were placed at 80° C. for 24 hours, the physical and chemical stability of the samples were tested by XRPD and HPLC.

Each structure is given as a SMILES string.

As to `O=C(Nc1ccc(F)cc1)C1(C(=O)Nc2ccc(Oc3ccnc4cc(OCCCN5CCOCC5)c5c(c34)OCCO5)c(F)c2)CC1` [Example 3, N-(3-fluoro-4-((5-(3-morpholinopropoxy)-2,3-dihydro-[1,4]dioxano[2,3-f]quinolin-10-yl)oxy)phenyl)-N-(4-fluorophenyl)cyclopropane-1,1-dicarboxamide], the “Solubility (equilibrium)” value in data set [1] turned out to be 1300 µg/mL. The “Moisture adsorption (25° C./80% RH)” value in data set [2] (25° C./80% RH) was found to be 3.13%. Moreover, the Hygroscopicity result in data set [2] (25° C.) was “Hygroscopic”. Further, the Purity was determined as 99.68 area % in data set [3] (25° C./60% RH, 1 week); 99.63 area % in data set [3] (40° C./75% RH, 1 week); 99.56 area % in data set [3] (80° C., 24 hours); 99.79 area % in data set [3] (Starting). Further, the Purity/initial purity in data set [3] (40° C./75% RH, 1 week) amounted to 99.8%; in data set [3] (80° C., 24 hours), 99.8%. In data set [3] (80° C., 24 hours), the “Change of Crystal form” value is “no”.

For the origin of these results see US20260176285A1, “SALT OF DIOXANE QUINOLINE COMPOUND, CRYSTAL FORM THEREOF, PREPARATION METHODS THEREFOR AND USES THEREOF” (Beijing Scitech-MQ Pharmaceuticals Limited, priority 2022, published 2026).
